{Cy5} = cyanine 5 fluorescent dye
How the values were obtained:
[1] = test system: 293T human renal epithelial cells; assay: High content imaging: entry of conjugates into 293T cells; type: cell-based; conditions: 100 nM, 30 min 37°C, normal cells
Experimental: In this experiment, the entry of conjugate AP1 provided by the present disclosure and comparative conjugate comparative AP10 into different cells was observed by a PerkinElmer High Content Imaging system (Operatta).
U118MG glioma cells, SVGp12 normal astrocytes, T98G human brain glioma cells, U251 human glioma cells, A549 human non-small cell lung cancer cells, MCF-7 human breast cancer cells, and 293T human kidney epithelial cells were all purchased from the Shanghai Cell Bank of Chinese Academy of Sciences. […] The supernatant was aspirated and DPBS buffer (purchased from Thermo Fisher) was added to wash the plate 2 times (100 μL each time).
Conjugate AP1 prepared above and yeast tRNA were respectively formulated into conjugate solution 2A with DMEM medium, and the conjugate solution 2A comprised yeast tRNA at a final concentration of 100 μg/mL and conjugate AP1 at a final concentration of 100 nM. […]
Normalization was performed according to the mean fluorescence intensity of control group 2Y, that is, subtracting the mean fluorescence intensity of control group 2Y from the fluorescence intensity of test group 2X before performing imaging.

[2] = test system: U118-MG neuroglioma cells; assay: CCK8 cell viability, U118-MG neuroglioma cells (Experimental Example 12); type: cell-based, human; conditions: 72 h; AP1 50-800 nM, conjugate 19 25-800 nM; CCK8, OD450
Experimental: U118MG neuroglioma cells were purchased from Jennio; SVGp12 human astrocytes were purchased from the Shanghai Cell Bank of Chinese Academy of Sciences; CCK8 kit was purchased from DOJINDO Laboratories.
U118MG cells and SVGp12 cells in the logarithmic growth phase were selected and seeded into a 96-well plate of a CCK8 kit at 5000 cells/well, cultured at 37° C. with 5% CO2 for 24 h. U118-MG cells and SVGp12 cells to be detected were obtained when the cell confluence was observed as 80% under microscope. […]
AP1 solution 1, AP1 solution 2, AP1 solution 3, and AP1 solution 4 were respectively added into U118-MG cells to be detected, and incubated at 37° C. for 72 h in the dark. […]
Conjugate 19 solution 1, Conjugate 19 solution 2, Conjugate 19 solution 3, Conjugate 19 solution 4, Conjugate 19 solution 5, Conjugate 19 solution 6, and Conjugate 19 solution 7 were respectively added into U118-MG cells to be detected, and incubated at 37° C. for 72 h in the dark. […]
CC8 kit was used to detect UV absorbance of test groups and control groups above at the detection wavelength of 450 nm in UV absorption spectrum according to the instructions, and the average value of the repeated experiments was taken for each group. Cell viability was calculated according to the following equation: […]

CY5-CfUfGGAGUfUfCfAGACfGUfGUfUfGCfUfCfUfUfCfCfGAUfCfUfCf (CUGGAGUUCAGACGUGUUGCUCUUCCGAUCUC; 2'-fluoro at CU, RNA at AG, 5' {Cy5}, backbone not given here) [AP1]
Cy5 fluorescence signal in cells [1]: nor the 293T human renal epithelial cells showed any fluorescence signal
cell viability of tumor cells [2]: no effect on cell viability

Source: patent publication US20250325675A1, “APTAMER, CONJUGATE, COMPOSITION, METHOD FOR PREPARING SAME, AND USE THEREOF” (priority 2022, published 2025)
